# Source: patent US9944602B2, “Piperidinone herbicides” (E. I. DU PONT DE NEMOURS AND COMPANY, priority 2014, dated 2018)
# Key:
# [1] = test system: barnyardgrass (Echinochloa crus-galli); experiment: Test A preemergence barnyardgrass; assay type: in vivo; conditions: 0 to 100 scale; for Plant response rating, Barnyardgrass: 500 g ai/ha, 0 is no effect, 100 is complete control; for pest or weed control at 125 g/ha: Echinochloa crus-galli, pre-emergence, 240 h, 125 g ai/ha, 0 no effect, 100 complete control, read-out: Barnyardgrass plant response rating
# Method in brief: (§1)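 Compounds in non-phytotoxic solvent with surfactant, applied preemergence as directed soil spray on seeds in loam–sand blend, or postemergence to plants 2–10 cm tall at one- to two-leaf stage. Greenhouse ~10 d, then visual injury versus untreated controls, 0 (no effect) to 100 (complete control).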
# [2] = test system: foxtail, giant (giant foxtail, Setaria faberii); experiment: Test A preemergence foxtail, giant; assay type: in vivo; conditions: Setaria faberi, pre-emergence, 240 h, 0 to 100 scale, 0 no effect, 100 complete control, read-out: Foxtail, Giant plant response rating; for pest or weed control at 125 g/ha: 125 g ai/ha; for pest or weed control at 500 g/ha: 500 g ai/ha
# Method in brief: as §1
# [3] = test system: pigweed (Amaranthus retroflexus); experiment: Test A preemergence pigweed; assay type: in vivo; conditions: Amaranthus retroflexus, pre-emergence, 240 h, 0 to 100 scale, 0 no effect, 100 complete control, read-out: Pigweed plant response rating; for pest or weed control at 125 g/ha: 125 g ai/ha; for pest or weed control at 500 g/ha: 500 g ai/ha
# Method in brief: as §1
# [4] = test system: barnyardgrass (Echinochloa crus-galli); experiment: Test A postemergence barnyardgrass; assay type: in vivo; conditions: Echinochloa crus-galli, post-emergence, 240 h, 0 to 100 scale, 0 is no effect, 100 is complete control, read-out: Plant response rating, Barnyardgrass; for pest or weed control at 125 g/ha: 125 g ai/ha; for pest or weed control at 500 g/ha: 500 g ai/ha
# Method in brief: as §1
# [5] = test system: foxtail, giant (giant foxtail, Setaria faberii); experiment: Test A postemergence foxtail, giant; assay type: in vivo; conditions: Setaria faberi, post-emergence, 240 h, 0 to 100 scale, 0 is no effect, 100 is complete control, read-out: Plant response rating, Foxtail, Giant; for pest or weed control at 125 g/ha: 125 g ai/ha; for pest or weed control at 500 g/ha: 500 g ai/ha
# Method in brief: as §1
# [6] = test system: pigweed (Amaranthus retroflexus); experiment: Test A postemergence pigweed; assay type: in vivo; conditions: Amaranthus retroflexus, post-emergence, 240 h, 0 to 100 scale, 0 is no effect, 100 is complete control, read-out: Plant response rating, Pigweed; for pest or weed control at 125 g/ha: 125 g ai/ha; for pest or weed control at 500 g/ha: 500 g ai/ha
# Method in brief: as §1
# [7] = test system: wheat (Triticum aestivum); experiment: Test A postemergence wheat; assay type: in vivo; conditions: Triticum aestivum, post-emergence, 240 h, 0 to 100 scale, 0 is no effect, 100 is complete control, read-out: Plant response rating, Wheat; for plant injury at 125 g/ha: 125 g ai/ha; for plant injury at 500 g/ha: 500 g ai/ha
# Method in brief: as §1
# [8] = test system: corn (Zea mays); experiment: Test A postemergence corn; assay type: in vivo; conditions: Zea mays, post-emergence, 240 h, 0 to 100 scale, 0 is no effect, 100 is complete control; for Corn plant response rating (crop injury, 0 = no effect, 100 = complete kill) at 125 g/ha: 125 g ai/ha; for Corn plant response rating (crop injury, 0 = no effect, 100 = complete kill) at 500 g/ha: 500 g ai/ha
# Method in brief: as §1
# [9] = test system: rice (Oryza sativa); experiment: Test B flooded paddy test rice; assay type: in vivo; conditions: Oryza sativa, Table B, Flood, 250 g ai/ha, scale 0 to 100, read-out: Plant response rating
# Method in brief: (§2)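 Plants at 2-leaf stage in pots flooded 3 cm above soil; compounds applied directly into paddy water, depth kept throughout.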
# [10] = test system: sedge, umbrella (small-flower umbrella sedge, Cyperus difformis); experiment: Test B flooded paddy test sedge, umbrella; assay type: in vivo; conditions: Cyperus difformis, Table B, Flood, 250 g ai/ha, scale 0 to 100, read-out: Plant response rating
# Method in brief: as §2
# [11] = test system: ducksalad (Heteranthera limosa); experiment: Test B flooded paddy test ducksalad; assay type: in vivo; conditions: Heteranthera limosa, Table B, Flood, 250 g ai/ha, scale 0 to 100, read-out: Plant response rating
# Method in brief: as §2
# [12] = test system: barnyardgrass (Echinochloa crus-galli); experiment: Test B flooded paddy test barnyardgrass; assay type: in vivo; conditions: Echinochloa crus-galli, Table B, Flood, 250 g ai/ha, scale 0 to 100, read-out: Plant response rating
# Method in brief: as §2
# [13] = test system: rice (Oryza sativa); experiment: Test C flooded paddy test rice; assay type: in vivo; conditions: Table C, Flood, scale 0 to 100
# Description: (§3) Plant species in the flooded paddy test consisted of rice (Oryza sativa), sedge, umbrella (small-flower umbrella sedge, Cyperus difformis), ducksalad (Heteranthera limosa), and barnyardgrass (Echinochloa crus-galli) grown to the 2-leaf stage for testing. At time of treatment, test pots were flooded to 3 cm above the soil surface, treated by application of test compounds directly to the paddy water, and then maintained at that water depth for the duration of the test. Treated plants and controls were maintained in a greenhouse for 13 to 15 d, after which time all species were compared to controls and visually evaluated. Plant response ratings, summarized in Table C, are based on a scale of 0 to 100 where 0 is no effect and 100 is complete control. A dash (-) response means no test result.
# [14] = test system: sedge, umbrella (small-flower umbrella sedge, Cyperus difformis); experiment: Test C flooded paddy test sedge, umbrella; assay type: in vivo; conditions: Table C, Flood, scale 0 to 100
# Description: as §3
# [15] = test system: ducksalad (Heteranthera limosa); experiment: Test C flooded paddy test ducksalad; assay type: in vivo; conditions: Table C, Flood, scale 0 to 100
# Description: as §3
# [16] = test system: barnyardgrass (Echinochloa crus-galli); experiment: Test C flooded paddy test barnyardgrass; assay type: in vivo; conditions: Table C, Flood, scale 0 to 100
# Description: as §3
# [17] = test system: kochia (Kochia scoparia); experiment: Test A preemergence kochia; assay type: in vivo; conditions: Bassia scoparia, pre-emergence, 240 h, 0 to 100 scale, 0 no effect, 100 complete control, read-out: Kochia plant response rating
# Method in brief: as §1
# [18] = test system: ragweed (common ragweed, Ambrosia elatior); experiment: Test A preemergence ragweed; assay type: in vivo; conditions: Ambrosia artemisiifolia, pre-emergence, 240 h, 0 to 100 scale, 0 no effect, 100 complete control, read-out: Ragweed plant response rating
# Method in brief: as §1
# [19] = test system: ryegrass, Italian (Italian ryegrass, Lolium multiflorum); experiment: Test A preemergence ryegrass, Italian; assay type: in vivo; conditions: Lolium multiflorum, pre-emergence, 240 h, 0 to 100 scale, 0 no effect, 100 complete control, read-out: Ryegrass, Italian plant response rating
# Method in brief: as §1
# [20] = test system: kochia (Kochia scoparia); experiment: Test A postemergence kochia; assay type: in vivo; conditions: Bassia scoparia, post-emergence, 240 h, 0 to 100 scale, 0 is no effect, 100 is complete control, read-out: Plant response rating, Kochia
# Method in brief: as §1
# [21] = test system: ragweed (common ragweed, Ambrosia elatior); experiment: Test A postemergence ragweed; assay type: in vivo; conditions: Ambrosia artemisiifolia, post-emergence, 240 h, 0 to 100 scale, 0 is no effect, 100 is complete control, read-out: Plant response rating, Ragweed
# Method in brief: as §1
# [22] = test system: ryegrass, Italian (Italian ryegrass, Lolium multiflorum); experiment: Test A postemergence ryegrass, Italian; assay type: in vivo; conditions: Lolium multiflorum, post-emergence, 240 h, 0 to 100 scale, 0 is no effect, 100 is complete control, read-out: Plant response rating, Ryegrass, Italian
# Method in brief: as §1
# [23] = test system: blackgrass (Alopecurus myosuroides); experiment: Test A postemergence blackgrass; assay type: in vivo; conditions: Alopecurus myosuroides, post-emergence, 240 h, 0 to 100 scale, 0 is no effect, 100 is complete control, read-out: Plant response rating, Blackgrass
# Method in brief: as §1
# [24] = test system: galium (catchweed bedstraw, Galium aparine); experiment: Test A postemergence galium; assay type: in vivo; conditions: Galium, post-emergence, 240 h, 0 to 100 scale, 0 is no effect, 100 is complete control, read-out: Plant response rating, Galium
# Method in brief: as §1
smiles,measurement,setting,value
"O=C1NCCC(c2cccc(C(F)(F)F)c2)C1C(=O)Nc1ccccc1C(F)(F)F (centres unmarked) [Compound 10, 2-oxo-N-[2-(trifluoromethyl)phenyl)-4-[3-(trifluoromethyl)phenyl]-3-piperidinecarboxamide]","Plant response rating, Barnyardgrass",[1],90
same,pest or weed control at 125 g/ha,[1],60%
same,pest or weed control at 125 g/ha,[2],90%
same,pest or weed control at 500 g/ha,[2],90%
same,pest or weed control at 125 g/ha,[3],0%
same,pest or weed control at 500 g/ha,[3],0%
same,pest or weed control at 125 g/ha,[4],80%
same,pest or weed control at 500 g/ha,[4],90%
same,pest or weed control at 125 g/ha,[5],40%
same,pest or weed control at 500 g/ha,[5],70%
same,pest or weed control at 125 g/ha,[6],0%
same,pest or weed control at 500 g/ha,[6],0%
same,plant injury at 125 g/ha,[7],0%
same,plant injury at 500 g/ha,[7],0%
same,"Corn plant response rating (crop injury, 0 = no effect, 100 = complete kill) at 125 g/ha",[8],0%
same,"Corn plant response rating (crop injury, 0 = no effect, 100 = complete kill) at 500 g/ha",[8],0%
same,plant injury at 250 g/ha,[9],10%
same,pest or weed control at 250 g/ha,[10],0%
same,pest or weed control at 250 g/ha,[11],40%
same,pest or weed control at 250 g/ha,[12],0%
same,Plant response rating,[13]; 1000 g ai/ha,10
same,Plant response rating,[14]; 1000 g ai/ha,0
same,Plant response rating,[15]; 1000 g ai/ha,85
same,Plant response rating,[16]; 1000 g ai/ha,65
same,melting point,,292 to 295 °C
"O=C1NCCC(c2ccc(C(F)(F)F)cc2)C1C(=O)Nc1cccc(F)c1F (centres unmarked) [Compound 11, N-(2,3-difluorophenyl)-2-oxo-4-[4-(trifluoromethyl)phenyl]-3-piperidinecarboxamide]","Plant response rating, Barnyardgrass",[1],90
same,pest or weed control at 125 g/ha,[1],60%
same,pest or weed control at 125 g/ha,[17]; 125 g ai/ha,0%
same,pest or weed control at 500 g/ha,[17]; 500 g ai/ha,60%
same,pest or weed control at 125 g/ha,[18]; 125 g ai/ha,40%
same,pest or weed control at 500 g/ha,[18]; 500 g ai/ha,80%
same,pest or weed control at 125 g/ha,[19]; 125 g ai/ha,0%
same,pest or weed control at 500 g/ha,[19]; 500 g ai/ha,0%
same,pest or weed control at 125 g/ha,[2],70%
same,pest or weed control at 500 g/ha,[2],90%
same,pest or weed control at 125 g/ha,[3],0%
same,pest or weed control at 500 g/ha,[3],40%
same,pest or weed control at 125 g/ha,[4],70%
same,pest or weed control at 500 g/ha,[4],90%
same,pest or weed control at 125 g/ha,[20]; 125 g ai/ha,20%
same,pest or weed control at 500 g/ha,[20]; 500 g ai/ha,50%
same,pest or weed control at 125 g/ha,[21]; 125 g ai/ha,0%
same,pest or weed control at 500 g/ha,[21]; 500 g ai/ha,20%
same,pest or weed control at 125 g/ha,[22]; 125 g ai/ha,0%
same,pest or weed control at 500 g/ha,[22]; 500 g ai/ha,30%
same,pest or weed control at 125 g/ha,[5],80%
same,pest or weed control at 500 g/ha,[5],90%
same,pest or weed control at 125 g/ha,[6],0%
same,pest or weed control at 500 g/ha,[6],30%
same,plant injury at 125 g/ha,[7],0%
same,plant injury at 500 g/ha,[7],50%
same,"Corn plant response rating (crop injury, 0 = no effect, 100 = complete kill) at 125 g/ha",[8],0%
same,"Corn plant response rating (crop injury, 0 = no effect, 100 = complete kill) at 500 g/ha",[8],40%
same,pest or weed control at 125 g/ha,[23]; 125 g ai/ha,20%
same,pest or weed control at 500 g/ha,[23]; 500 g ai/ha,50%
same,pest or weed control at 125 g/ha,[24]; 125 g ai/ha,40%
same,pest or weed control at 500 g/ha,[24]; 500 g ai/ha,60%
same,Plant response rating,[13]; 125 g ai/ha,0
same,Plant response rating,[13]; 250 g ai/ha,0
same,Plant response rating,[13]; 500 g ai/ha,0
same,Plant response rating,[13]; 1000 g ai/ha,0
same,Plant response rating,[14]; 125 g ai/ha,0
same,Plant response rating,[14]; 250 g ai/ha,0
same,Plant response rating,[14]; 500 g ai/ha,0
same,Plant response rating,[14]; 1000 g ai/ha,0
same,Plant response rating,[15]; 125 g ai/ha,30
same,Plant response rating,[15]; 250 g ai/ha,80
same,Plant response rating,[15]; 500 g ai/ha,95
same,Plant response rating,[15]; 1000 g ai/ha,100
same,Plant response rating,[16]; 125 g ai/ha,10
same,Plant response rating,[16]; 250 g ai/ha,20
same,Plant response rating,[16]; 500 g ai/ha,50
same,Plant response rating,[16]; 1000 g ai/ha,70
same,melting point,,180 to 182 °C
